Results from US12428406B2 (PMV Pharmaceuticals, Inc., priority 2019, dated 2025).

Target: T1, p53 Y220C (Homo sapiens, UniProt P04637, Y220C)
T1 construct: The recombinant protein was a truncation mutant containing only amino acids 94-312 of p53; made in house; host or cells: E. coli
Experiment: In vitro DNA binding activity assay (HTRF / TR-FRET): stabilization of p53 Y220C and increase of its DNA binding activity
Type: biochemical
Settings: recombinant His-tagged p53 Y220C DNA binding domain (aa 94-312), biotin-labeled consensus DNA, incubated at 27° C. or 29° C. for 60 min
Outline: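 E. coli His-p53 Y220C + biotin consensus DNA; anti-His-APC/SA-Eu TR-FRET. SC150 vs no-compound.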

T1 sequence (P04637 94-312, change not shown): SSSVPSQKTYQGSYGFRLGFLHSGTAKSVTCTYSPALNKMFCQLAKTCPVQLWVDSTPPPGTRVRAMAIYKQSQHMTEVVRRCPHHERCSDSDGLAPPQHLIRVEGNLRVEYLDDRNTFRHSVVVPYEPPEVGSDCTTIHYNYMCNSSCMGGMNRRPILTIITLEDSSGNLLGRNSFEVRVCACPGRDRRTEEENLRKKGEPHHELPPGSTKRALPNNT

SC150 (concentration of the compound required to increase the DNA binding activity by 50%) | Compound
+ (+ = 0 μM ≤ SC150 < 0.05 μM) | COc1cc(S(C)(=O)=O)ccc1NCC#Cc1cc2c(N[C@H]3CC[C@H](N4CC5(COC5)C4)CC3)cccc2n1CC(F)(F)F [Compound 202A, 2-{3-[(4-methanesulfonyl-2-methoxyphenyl)amino]prop-1-yn-1-yl}-N-[(1R,4R)-4-{2-oxa-6-azaspiro[3.3]heptan-6-yl}cyclohexyl]-1-(2,2,2-trifluoroethyl)-1H-indol-4-amine]
+ (+ = 0 μM ≤ SC150 < 0.05 μM) | COc1cc(S(C)(=O)=O)ccc1NCC#Cc1cc2c(N[C@H]3CC[C@@H](N4CC5(COC5)C4)CC3)cccc2n1CC(F)(F)F [Compound 203A, 2-{3-[(4-methanesulfonyl-2-methoxyphenyl)amino]prop-1-yn-1-yl}-N-[(1S,4S)-4-{2-oxa-6-azaspiro[3.3]heptan-6-yl}cyclohexyl]-1-(2,2,2-trifluoroethyl)-1H-indol-4-amine]
+ (+ = 0 μM ≤ SC150 < 0.05 μM) | COc1cc(S(N)(=O)=O)ccc1NCC#Cc1cc2c(N[C@H]3CC[C@@H](N4CC5(COC5)C4)CC3)cccc2n1CC(F)(F)F [Compound 204A, 3-methoxy-4-{[3-(4-{[(1R,4R)-4-{2-oxa-6-azaspiro[3.3]heptan-6-yl}cyclohexyl]amino}-1-(2,2,2-trifluoroethyl)-1H-indol-2-yl)prop-2-yn-1-yl]amino}benzene-1-sulfonamide]
+ (+ = 0 μM ≤ SC150 < 0.05 μM) | COc1cc(S(N)(=O)=O)ccc1NCC#Cc1cc2c(N[C@H]3CC[C@H](N4CC5(COC5)C4)CC3)cccc2n1CC(F)(F)F [Compound 205A, 3-methoxy-4-{[3-(4-{[(1S,4S)-4-{2-oxa-6-azaspiro[3.3]heptan-6-yl}cyclohexyl]amino}-1-(2,2,2-trifluoroethyl)-1H-indol-2-yl)prop-2-yn-1-yl]amino}benzene-1-sulfonamide]
+ (+ = 0 μM ≤ SC150 < 0.05 μM) | CCC(=O)NS(=O)(=O)c1ccc(NCC#Cc2cc3c(N[C@H]4CC[C@H](N5CC6(COC6)C5)CC4)cccc3n2CC(F)(F)F)c(OC)c1 [Compound 206A, N-(3-methoxy-4-{[3-(4-{[(1R,4R)-4-{2-oxa-6-azaspiro[3.3]heptan-6-yl}cyclo-hexyl]amino}-1-(2,2,2-trifluoroethyl)-1H-indol-2-yl)prop-2-yn-1-yl]amino}benzene-sulfonyl)propanamide]
+ (+ = 0 μM ≤ SC150 < 0.05 μM) | CCC(=O)NS(=O)(=O)c1ccc(NCC#Cc2cc3c(N[C@H]4CC[C@@H](N5CC6(COC6)C5)CC4)cccc3n2CC(F)(F)F)c(OC)c1 [Compound 207A, N-(3-methoxy-4-{[3-(4-{[(1S,4S)-4-{2-oxa-6-azaspiro[3.3]heptan-6-yl}cyclo-hexyl]amino}-1-(2,2,2-trifluoroethyl)-1H-indol-2-yl)prop-2-yn-1-yl]amino}benzene-sulfonyl)propanamide]
+ (+ = 0 μM ≤ SC150 < 0.05 μM) | COc1cc(S(=O)(=O)NC(C)=O)ccc1NCC#Cc1cc2c(N[C@H]3CC[C@H](N4CC5(COC5)C4)CC3)cccc2n1CC(F)(F)F [Compound 208A, N-(3-methoxy-4-{[3-(4-{[(1R,4R)-4-{2-oxa-6-azaspiro[3.3]heptan-6-yl}cyclohexyl]amino}-1-(2,2,2-trifluoro-ethyl)-1H-indol-2-yl)prop-2-yn-1-yl]amino}benzene-sulfonyl)acetamide]
+ (+ = 0 μM ≤ SC150 < 0.05 μM) | COc1cc(S(=O)(=O)NC(C)=O)ccc1NCC#Cc1cc2c(N[C@H]3CC[C@@H](N4CC5(COC5)C4)CC3)cccc2n1CC(F)(F)F [Compound 209A, N-(3-methoxy-4-{[3-(4-{[(1S,4S)-4-{2-oxa-6-azaspiro[3.3]heptan-6-yl}cyclohexyl]amino}-1-(2,2,2-trifluoroethyl)-1H-indol-2-yl)prop-2-yn-1-yl]amino}benzene-sulfonyl)acetamide]

The next lines start with the molecule.

Compound | SC150 (concentration of the compound required to increase the DNA binding activity by 50%)
CNC(=O)c1ccc(NCC#Cc2cc3c(N[C@H]4CC[C@H](N5CC(S(C)(=O)=O)C5)CC4)cccc3n2CC(F)(F)F)c(OC)c1 [Compound 192A, 3-methoxy-N-methyl-4-{[3-(4-{[(1R,4R)-4-(3-methanesulfonyl-azetidin-1-yl)cyclo-hexyl]amino}-1-(2,2,2-trifluoroethyl)-1H-indol-2-yl)prop-2-yn-1-yl]amino}benzamide] | + (+ = 0 μM ≤ SC150 < 0.05 μM)
COc1cc(S(C)(=O)=O)ccc1NCC#Cc1cc2c(N[C@H]3CC[C@H](N4CC5(CCC5)C4)CC3)cccc2n1CC(F)(F)F [Compound 194A, 2-{3-[(4-methane-sulfonyl-2-methoxy-phenyl)amino]prop-1-yn-1-yl}-N-[(1R,4R)-4-{2-azaspiro[3.3]heptan-2-yl}cyclohexyl]-1-(2,2,2-trifluoroethyl)-1H-indol-4-amine] | + (+ = 0 μM ≤ SC150 < 0.05 μM)
CNC(=O)c1ccc(NCC#Cc2cc3c(N[C@H]4CC[C@H](N5CC6(CCC6)C5)CC4)cccc3n2CC(F)(F)F)c(OC)c1 [Compound 196A, 3-methoxy-N-methyl-4-{[3-(4-{[(1R,4R)-4-{2-azaspiro[3.3]heptan-2-yl}cyclohexyl]amino}-1-(2,2,2-trifluoroethyl)-1H-indol-2-yl)prop-2-yn-1-yl]amino}benzamide] | + (+ = 0 μM ≤ SC150 < 0.05 μM)
COc1cc(S(N)(=O)=O)ccc1NCC#Cc1cc2c(N[C@H]3CC[C@H](N4CC5(CCC5)C4)CC3)cccc2n1CC(F)(F)F [Compound 198A, 3-methoxy-4-{[3-(4-{[(1R,4R)-4-{2-azaspiro[3.3]heptan-2-yl}cyclohexyl]amino}-1-(2,2,2-trifluoroethyl)-1H-indol-2-yl)prop-2-yn-1-yl]amino}benzene-1-sulfonamide] | + (+ = 0 μM ≤ SC150 < 0.05 μM)
CS(=O)(=O)c1ccc(NCC#Cc2cc3c(N[C@H]4CC[C@H](N5CC6(COC6)C5)CC4)cccc3n2CC(F)(F)F)c(OCCF)c1 [Compound 210A, N-((1R,4R)-4-(2-oxa-6-azaspiro[3.3]heptan-6-yl)cyclohexyl)-2-(3-((2-(2-fluoroethoxy)-4-(methylsulfonyl)phenyl)amino)prop-1-yn-1-yl)-1-(2,2,2-trifluoroethyl)-1H-indol-4-amine] | + (+ = 0 μM ≤ SC150 < 0.05 μM)
COc1cc(C(N)=O)ccc1NCC#Cc1cc2c(N[C@H]3CC[C@H](N4CC5(COC5)C4)CC3)cccc2n1CC(F)(F)F [Compound 212A, 3-methoxy-4-{[3-(4-{[(1R,4R)-4-{2-oxa-6-azaspiro[3.3]heptan-6-yl}cyclohexyl]amino}-1-(2,2,2-trifluoroethyl)-1H-indol-2-yl)prop-2-yn-1-yl]amino}benzamide] | + (+ = 0 μM ≤ SC150 < 0.05 μM)
COc1cc(C(N)=O)ccc1NCC#Cc1cc2c(N[C@H]3CC[C@@H](N4CC5(COC5)C4)CC3)cccc2n1CC(F)(F)F [Compound 213A, 3-methoxy-4-{[3-(4-{[(1S,4S)-4-{2-oxa-6-azaspiro[3.3]heptan-6-yl}cyclohexyl]amino}-1-(2,2,2-trifluoroethyl)-1H-indol-2-yl)prop-2-yn-1-yl]amino}benzamide] | + (+ = 0 μM ≤ SC150 < 0.05 μM)
